Values after ≈ are worked out from the molar mass of the structure shown. Active and inactive are the calls of the source. The calls are words filed in the database; no cut-off is given here.
Key:
[1] = system: HeLa; assay: Cytotoxicity against human HeLa cells assessed as growth inhibition after 24 to 72 hrs by MTT assay; format: cell-based
[2] = system: Aspergillus clavatus; assay: Antifungal activity against Aspergillus clavatus assessed as growth inhibition after 48 hrs by broth dilution assay; format: functional
[3] = system: Aspergillus niger; assay: Antifungal activity against Aspergillus niger assessed as growth inhibition after 48 hrs by broth dilution assay; format: functional
[4] = system: Candida albicans; assay: Antifungal activity against Candida albicans assessed as growth inhibition after 48 hrs by broth dilution assay; format: functional
[5] = system: Pseudomonas aeruginosa; assay: Antibacterial activity against Pseudomonas aeruginosa MTCC 1688 assessed as growth inhibition after 24 hrs by broth dilution assay; format: functional; conditions: MTCC 1688, 24 h
[6] = system: Escherichia coli; assay: Antibacterial activity against Escherichia coli MTCC 443 assessed as growth inhibition after 24 hrs by broth dilution assay; format: functional; conditions: MTCC 443, 24 h
[7] = system: Streptococcus pyogenes; assay: Antibacterial activity against Streptococcus pyogenes MTCC 442 assessed as growth inhibition after 24 hrs by broth dilution assay; format: functional; conditions: MTCC 442, 24 h
[8] = system: Staphylococcus aureus; assay: Antibacterial activity against Staphylococcus aureus MTCC 96 assessed as growth inhibition after 24 hrs by broth dilution assay; format: functional; conditions: MTCC 96, 24 h
[9] = system: Aspergillus clavatus; assay: Antifungal activity against Aspergillus clavatus assessed as growth inhibition at 12.5 to 1000 ug/mL after 48 hrs by broth dilution assay; format: functional, organism-based
[10] = system: Aspergillus niger; assay: Antifungal activity against Aspergillus niger assessed as growth inhibition at 12.5 to 1000 ug/mL after 48 hrs by broth dilution assay; format: functional, organism-based
[11] = system: Candida albicans; assay: Antifungal activity against Candida albicans assessed as growth inhibition at 12.5 to 1000 ug/mL after 48 hrs by broth dilution assay; format: functional, organism-based
[12] = system: Pseudomonas aeruginosa; assay: Antibacterial activity against Pseudomonas aeruginosa MTCC 1688 assessed as growth inhibition at 12.5 to 1000 ug/mL after 24 hrs by broth dilution assay; format: functional, organism-based
[13] = system: Escherichia coli; assay: Antibacterial activity against Escherichia coli MTCC 443 assessed as growth inhibition at 12.5 to 1000 ug/mL after 24 hrs by broth dilution assay; format: functional, organism-based
[14] = system: Streptococcus pyogenes; assay: Antibacterial activity against Streptococcus pyogenes MTCC 442 assessed as growth inhibition at 12.5 to 1000 ug/mL after 24 hrs by broth dilution assay; format: functional, organism-based
[15] = system: Staphylococcus aureus; assay: Antibacterial activity against Staphylococcus aureus MTCC 96 assessed as growth inhibition at 12.5 to 1000 ug/mL after 24 hrs by broth dilution assay; format: functional, organism-based

MIC [2] [µg/mL] | MIC [3] [µg/mL] | MIC [4] [µg/mL] | MIC [5] [µg/mL] | MIC [6] [µg/mL] | MIC [7] [µg/mL] | MIC [8] [µg/mL] | Structure (SMILES) | IC50 [1] [µM] | growth inhibition (GI) [9] | growth inhibition (GI) [10] | growth inhibition (GI) [11] | growth inhibition (GI) [12] | growth inhibition (GI) [13] | growth inhibition (GI) [14] | growth inhibition (GI) [15]
100 (≈ 192 µM) | 100 (≈ 192 µM) | 100 (≈ 192 µM) | 12.5 (≈ 24 µM) | 25 (≈ 48 µM) | 25 (≈ 48 µM) | 12.5 (≈ 24 µM) | N#Cc1c(-c2ccc([N+](=O)[O-])cc2)cc(-c2nc3ccccc3[nH]2)nc1N1C(=O)C(Cl)C1c1ccccc1 (centres undefined) | > 100 | – | – | – | – | – | – | –
100 (≈ 196 µM) | 100 (≈ 196 µM) | 100 (≈ 196 µM) | 12.5 (≈ 24.5 µM) | 12.5 (≈ 24.5 µM) | 25 (≈ 49 µM) | 12.5 (≈ 24.5 µM) | N#Cc1c(-c2ccc(Cl)cc2)cc(-c2nc3ccccc3[nH]2)nc1N1C(=O)C(Cl)C1c1ccccc1 (centres undefined) | > 100 | – | – | – | – | – | – | –
– | – | – | 1000 (≈ 2300 µM) | – | 1000 (≈ 2300 µM) | – | N#Cc1c(-c2ccccc2Cl)cc(-c2nc3ccccc3[nH]2)nc1/N=C/c1ccccc1 | – | – | – | – | – | – | – | –
50 (≈ 98 µM) | 25 (≈ 49 µM) | 50 (≈ 98 µM) | 25 (≈ 49 µM) | 50 (≈ 98 µM) | 50 (≈ 98 µM) | 25 (≈ 49 µM) | N#Cc1c(-c2cccc(Cl)c2)cc(-c2nc3ccccc3[nH]2)nc1N1C(=O)C(Cl)C1c1ccccc1 (centres undefined) | > 100 | – | – | – | – | – | – | –
– | – | – | ≥ 1000 | – | ≥ 1000 | ≥ 1000 | N#Cc1c(-c2ccc(Cl)cc2)cc(-c2nc3ccccc3[nH]2)nc1N | – | – | – | – | – | – | – | –
– | – | – | 1000 (≈ 2250 µM) | – | 1000 (≈ 2250 µM) | – | N#Cc1c(-c2cccc([N+](=O)[O-])c2)cc(-c2nc3ccccc3[nH]2)nc1/N=C/c1ccccc1 | – | inactive | inactive | inactive | – | – | – | –
100 (≈ 196 µM) | 100 (≈ 196 µM) | 100 (≈ 196 µM) | 250 (≈ 490 µM) | 100 (≈ 196 µM) | 100 (≈ 196 µM) | 100 (≈ 196 µM) | N#Cc1c(-c2ccccc2Cl)cc(-c2nc3ccccc3[nH]2)nc1N1C(=O)C(Cl)C1c1ccccc1 (centres undefined) | > 100 | – | – | – | – | – | – | –

The next lines start with the molecule.

Structure (SMILES) | MIC [2] [µg/mL] | MIC [3] [µg/mL] | MIC [4] [µg/mL] | MIC [5] [µg/mL] | MIC [6] [µg/mL] | MIC [7] [µg/mL] | MIC [8] [µg/mL] | IC50 [1] [µM] | growth inhibition (GI) [9] | growth inhibition (GI) [10] | growth inhibition (GI) [11] | growth inhibition (GI) [12] | growth inhibition (GI) [13] | growth inhibition (GI) [14] | growth inhibition (GI) [15]
N#Cc1c(-c2cccc(O)c2)cc(-c2nc3ccccc3[nH]2)nc1N | – | – | – | – | – | – | – | – | inactive | inactive | inactive | inactive | inactive | inactive | inactive
Cc1ccccc1-c1cc(-c2nc3ccccc3[nH]2)nc(N)c1C#N | – | – | – | – | – | – | – | – | inactive | inactive | inactive | inactive | inactive | inactive | inactive
N#Cc1c(-c2ccc(O)cc2)cc(-c2nc3ccccc3[nH]2)nc1N | – | – | – | – | – | – | – | – | inactive | inactive | inactive | inactive | inactive | inactive | inactive
Cc1cccc(-c2cc(-c3nc4ccccc4[nH]3)nc(N3C(=O)C(Cl)C3c3ccccc3)c2C#N)c1 (centres undefined) | 500 (≈ 1020 µM) | 250 (≈ 510 µM) | 500 (≈ 1020 µM) | 500 (≈ 1020 µM) | 500 (≈ 1020 µM) | 250 (≈ 510 µM) | 250 (≈ 510 µM) | 78.2 | – | – | – | – | – | – | –
N#Cc1c(-c2ccc(Cl)cc2O)cc(-c2nc3ccccc3[nH]2)nc1N1C(=O)C(Cl)C1c1ccccc1 (centres undefined) | 250 (≈ 475 µM) | 250 (≈ 475 µM) | 250 (≈ 475 µM) | 200 (≈ 380 µM) | 500 (≈ 950 µM) | 250 (≈ 475 µM) | 100 (≈ 190 µM) | 91.5 | – | – | – | – | – | – | –
COc1cccc(-c2cc(-c3nc4ccccc4[nH]3)nc(N)c2C#N)c1 | – | – | – | – | – | – | – | – | inactive | inactive | inactive | inactive | inactive | inactive | inactive
N#Cc1c(-c2ccc(O)cc2)cc(-c2nc3ccccc3[nH]2)nc1N1C(=O)C(Cl)C1c1ccccc1 (centres undefined) | 250 (≈ 508 µM) | 500 (≈ 1020 µM) | 500 (≈ 1020 µM) | 250 (≈ 508 µM) | 250 (≈ 508 µM) | 250 (≈ 508 µM) | 250 (≈ 508 µM) | 67.4 | – | – | – | – | – | – | –
Cc1ccc(-c2cc(-c3nc4ccccc4[nH]3)nc(N)c2C#N)cc1 | – | – | – | – | – | – | – | – | inactive | inactive | inactive | inactive | inactive | inactive | inactive
Cc1ccc(-c2cc(-c3nc4ccccc4[nH]3)nc(N3C(=O)C(Cl)C3c3ccccc3)c2C#N)cc1 (centres undefined) | 500 (≈ 1020 µM) | 500 (≈ 1020 µM) | 500 (≈ 1020 µM) | 500 (≈ 1020 µM) | 100 (≈ 204 µM) | 500 (≈ 1020 µM) | 250 (≈ 510 µM) | 74.5 | – | – | – | – | – | – | –
